For test [1] the following is noted: known from the literature; cited from earlier work.
Test [2] in a line: Affinity of subject ligand for Zn2+. Type of test: binding. From the text: Fluorescence Zn^2+ Binding Titration (Kd1). The first Kd associated with Zn^2+ binding will be measured by a fluorescence titration as described previously. Spectra of the subject ligand will be acquired by exciting at 490 nm or other suitable wavelength and collecting and integrating from 500–575 nm or other appropriate window. The measurements will be performed in triplicate to ensure accuracy of the Kd value.

The structures appear in SMILES notation.

As to `c1ccc(CN(CCN(Cc2ccccn2)Cc2ccccn2)Cc2ccccn2)nc1` [TPEN], in test [1], the “affinity and specificity for Zn^2+ over Mg^2+ and Ca^2+” value is “very high affinity and specificity”.
Regarding `O=C(O)c1ccccc1-c1c2cc(Cl)c(=O)cc-2oc2cc(N(Cc3ccccn3)Cc3ccccn3)ccc12` [compound 30, 9-(o-Carboxyphenyl)-2-chloro-6-[bis(2-pyridylmethyl)amino]-3-xanthanone], the “affinity for Zn^2+” value in test [2] was “weak”.

The record behind these values is patent publication US7018840B2, “Fluorescent metal sensors, and methods of making and using the same” (Massachusetts Institute of Technology, priority 2001, dated 2006).
